Columns and labels:
mouse HoxB5 = test: Confirmation test by gene expression of mouse HoxB5 (qRT-PCR); format: cell-based; settings: for mGAPDH Ct value / mHoxB5 Ct value: day 7 of culture; for Ct value difference: mHoxB5 minus mGAPDH
Procedure: Cells cultured in the presence of artemether were evaluated by gene expression of mouse HoxB5. Cells were cultured in the same manner as in Example 3, and the cells after culture were treated with a Single Cell to CT qRT-PCR kit (manufactured by Life Technologies) according to the instruction of the kit. The cells treated were washed once with PBS, a cell-lysing solution was then added thereto, and the resultant was subjected to RNA extraction followed by reverse transcription reaction for cDNA synthesis, amplified through Taqman Gene Expression Assay in 14 cycles, and diluted with 1×TE buffer (pH 8.0). Real-time PCR was performed with the following Taqman probes at 95° C. for 3 seconds and at 60° C. for 30 seconds in 40 cycles to amplify the sample (HoxbB5: Mm00657672 (manufactured by Thermo Fisher Scientific), Gapdh: Mm99999915-g1 (manufactured by Thermo Fisher Scientific)). All the thermal cycler operations were analyzed by using a QuantStudio 6 (manufactured by Applied Biosystems) (Table 5).
From Table 5, we were able to confirm, by allowing the compound to act, the expression of the long-term hematopoietic stem cell marker HoxB5 in cells on day 7 of culture under culture conditions such that the mouse HoxB5 Ct value was 30 or less and the ACT value was 16 or less.

[1] = test system: mouse long-term hematopoietic stem cells; test: Combination test with UM171 on mouse long-term hematopoietic stem cells; format: cell-based; settings: n=2
Procedure: The cells after classification were seeded in a 96-well plate. A cell culture medium was prepared by adding Stem Cell Factor (SCF, manufactured by PeproTech, Inc.) and Thrombopoietin (TPO, manufactured by PeproTech, Inc.) to StemSpan SFEM culture medium (manufactured by […] Technologies Inc.) and added in advance to a cell culture 96-well plate (manufactured by BD Biosciences) at 100 μL/well, and the cells sorted with the FACS Aria II cell sorter (BD Biosciences) were then seeded at 10 cells/well.
The test compounds each in the form of 10 mM DMSO solution were diluted with the cell culture medium to a final concentration of 1 μM, and added to the cells seeded after classification through medium exchange to a final volume of 200 μL/well. Thereafter, the cells were cultured in a CO2 incubator under conditions of 37° C. and 5% CO2 for 1 week.
After culture, the cells were stained with the antibodies for the surface markers c-Kit and Sca-1, Ter-119, B220, CD3, CD4, CD8a, Gr-1, and CD11b, and the ratio and post-growth cell count of a KLS fraction (c-Kit^+, Lin^−, Sca-1^+) or an mCherry-positive fraction given with use of a FACS Aria II cell sorter were analyzed by using FlowJo (BD Biosciences). The mCherry-positive fraction is a cell fraction expressing the Hoxb5 gene, and the KLS fraction is a cell fraction being c-Kit-positive, Lin-negative, and Sca-1-positive, and includes hematopoietic stem cells and multipotent progenitor cells as main components.
A DMSO solution of artemether was adjusted with the cell culture medium to three final concentrations (0.1 μM, 1 μM, 10 μM), and a DMSO solution of UM171 was adjusted with the cell culture medium to four final concentrations (0.1 μM, 0.3 μM, 1 μM, 3 μM), and cell culture was performed at n=2 by the same method as in Example 1. The cell culture and evaluation criteria were the same as those in Example 2.

[2] = artemether 0.1 μM + UM171 0.1 μM
[3] = artemether 0.1 μM + UM171 0.3 μM
[4] = artemether 10 μM + UM171 0.1 μM
[5] = artemether 10 μM + UM171 0.3 μM

CO[C@H]1O[C@@H]2O[C@@]3(C)CC[C@H]4[C@H](C)CC[C@@H]([C@H]1C)[C@@]24OO3 [Example 1-30, artemether, reference compound]
mGAPDH Ct value (mouse HoxB5; compound 0.03 μM): 13.12
mHoxB5 Ct value (mouse HoxB5; compound 0.03 μM): 30.72
mGAPDH Ct value (mouse HoxB5; compound 0.1 μM): 13.23
mHoxB5 Ct value (mouse HoxB5; compound 0.1 μM): 30.57
mGAPDH Ct value (mouse HoxB5; compound 0.3 μM): 14.47
mHoxB5 Ct value (mouse HoxB5; compound 0.3 μM): 28.79
mGAPDH Ct value (mouse HoxB5; compound 1 μM): 13.02
mHoxB5 Ct value (mouse HoxB5; compound 1 μM): 31.18
mGAPDH Ct value (mouse HoxB5; compound 3 μM): 13.90
mHoxB5 Ct value (mouse HoxB5; compound 3 μM): 28.99
mGAPDH Ct value (mouse HoxB5; compound 10 μM): 17.68
mHoxB5 Ct value (mouse HoxB5; compound 10 μM): 27.62
Ct value difference (mouse HoxB5; compound 0.03 μM): 17.60
Ct value difference (mouse HoxB5; compound 0.1 μM): 17.34
Ct value difference (mouse HoxB5; compound 0.3 μM): 14.31
Ct value difference (mouse HoxB5; compound 1 μM): 18.16
Ct value difference (mouse HoxB5; compound 3 μM): 15.10
Ct value difference (mouse HoxB5; compound 10 μM): 9.94
KLS-positive rate [1, 2]: 52.0%
Viable cell count [1, 2]: 430.0 cell
mCherry-positive rate [1, 2]: 51.8%
KLS-positive rate [1, 3]: 42.0%
Viable cell count [1, 3]: 257.0 cell
mCherry-positive rate [1, 3]: 78.1%
KLS-positive rate ([1]; artemether 0.1 μM + UM171 1 μM): 93.4%
Viable cell count ([1]; artemether 0.1 μM + UM171 1 μM): 28.5 cell
mCherry-positive rate ([1]; artemether 0.1 μM + UM171 1 μM): 100.0%
KLS-positive rate ([1]; artemether 0.1 μM + UM171 3 μM): 60.6%
Viable cell count ([1]; artemether 0.1 μM + UM171 3 μM): 101.5 cell
mCherry-positive rate ([1]; artemether 0.1 μM + UM171 3 μM): 82.4%
KLS-positive rate ([1]; artemether 1 μM + UM171 0.1 μM): 33.1%
Viable cell count ([1]; artemether 1 μM + UM171 0.1 μM): 269.0 cell
mCherry-positive rate ([1]; artemether 1 μM + UM171 0.1 μM): 96.3%
KLS-positive rate ([1]; artemether 1 μM + UM171 0.3 μM): 48.6%
Viable cell count ([1]; artemether 1 μM + UM171 0.3 μM): 151.0 cell
mCherry-positive rate ([1]; artemether 1 μM + UM171 0.3 μM): 99.1%
KLS-positive rate ([1]; artemether 1 μM + UM171 1 μM): 93.7%
Viable cell count ([1]; artemether 1 μM + UM171 1 μM): 23.0 cell
mCherry-positive rate ([1]; artemether 1 μM + UM171 1 μM): 100.0%
KLS-positive rate ([1]; artemether 1 μM + UM171 3 μM): 67.3%
Viable cell count ([1]; artemether 1 μM + UM171 3 μM): 23.5 cell
mCherry-positive rate ([1]; artemether 1 μM + UM171 3 μM): 100.0%
KLS-positive rate [1, 4]: 56.7%
Viable cell count [1, 4]: 122.0 cell
mCherry-positive rate [1, 4]: 99.6%
KLS-positive rate [1, 5]: 91.1%
Viable cell count [1, 5]: 38.0 cell
mCherry-positive rate [1, 5]: 100.0%
KLS-positive rate ([1]; artemether 10 μM + UM171 1 μM): 95.9%
Viable cell count ([1]; artemether 10 μM + UM171 1 μM): 9.5 cell
mCherry-positive rate ([1]; artemether 10 μM + UM171 1 μM): 100.0%
KLS-positive rate ([1]; artemether 10 μM + UM171 3 μM): 94.7%
Viable cell count ([1]; artemether 10 μM + UM171 3 μM): 19.0 cell
mCherry-positive rate ([1]; artemether 10 μM + UM171 3 μM): 96.9%

From patent US20230094952A1, “Method for Culturing Hematopoietic Stem Cells” (Sumitomo Pharma Co., Ltd., priority 2019, published 2023)
